Earlier results as cited in US7390809B2, “Beta-amino heterocyclic dipeptidyl peptidase inhibitors for diabetes” (Merck & Co., Inc., priority 2002, dated 2008).

How the values were obtained:
cardiac allograft = details: rats; survival doubled from day 7
hematopoiesis = details: mouse, cyclophosphamide-induced neutropenia
DP-IV = target: T1, DP-IV (Homo sapiens, UniProt P27487)
T1 construct: GRF is rapidly degraded in plasma to GRF[3-44]
T1 sequence (P27487 whole entry): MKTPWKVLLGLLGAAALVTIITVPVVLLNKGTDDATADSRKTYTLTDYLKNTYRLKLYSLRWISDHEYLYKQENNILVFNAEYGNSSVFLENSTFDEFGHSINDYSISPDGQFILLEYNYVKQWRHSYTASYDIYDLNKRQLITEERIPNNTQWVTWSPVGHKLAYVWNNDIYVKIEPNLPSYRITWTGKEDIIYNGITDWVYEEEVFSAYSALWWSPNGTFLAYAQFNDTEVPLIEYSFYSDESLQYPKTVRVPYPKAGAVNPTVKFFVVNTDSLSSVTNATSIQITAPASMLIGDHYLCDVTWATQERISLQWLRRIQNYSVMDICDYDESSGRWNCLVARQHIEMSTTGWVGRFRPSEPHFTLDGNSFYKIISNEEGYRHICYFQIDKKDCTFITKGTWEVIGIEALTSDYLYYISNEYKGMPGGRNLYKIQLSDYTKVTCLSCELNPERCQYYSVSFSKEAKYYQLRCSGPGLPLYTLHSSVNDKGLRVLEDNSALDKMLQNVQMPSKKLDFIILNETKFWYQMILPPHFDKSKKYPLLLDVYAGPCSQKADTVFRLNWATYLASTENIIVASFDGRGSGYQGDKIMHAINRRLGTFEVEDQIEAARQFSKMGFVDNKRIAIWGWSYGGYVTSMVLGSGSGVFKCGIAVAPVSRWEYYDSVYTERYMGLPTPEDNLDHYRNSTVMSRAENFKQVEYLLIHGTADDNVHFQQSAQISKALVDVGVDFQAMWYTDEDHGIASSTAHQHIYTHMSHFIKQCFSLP

CC(C)N1CCC(c2ccccc2)(c2ccccc2)CC1 [Prodipine, Pro-Pro-diphenyl-phosphonate]
cardiac allograft survival (cardiac allograft): 14 day

CC(C)[C@H](N)C(=O)N1CCC[C@H]1B(O)O [Val-Boro-Pro]
effect on hematopoiesis (hematopoiesis): stimulated hematopoiesis

diprotin A
degradation of GRF in plasma to GRF[3-44] (DP-IV): prevented
